In ChEMBL document CHEMBL4420071, “Method for treating skin with retinoids and retinoid boosters” (2013):

Tests used:
Homo sapiens [1] = species: Homo sapiens; experiment: Inhibition of transglutaminase in human keratinocytes assessed as mean transglutaminase activity level at 3.73 10^-7M in presence of 10 uM retinal relative to retinal alone; type: cell-based; parameters: scale not given: the % may be the effect or the level left
Homo sapiens [2] = species: Homo sapiens; experiment: Inhibition of transglutaminase in human keratinocytes assessed as mean transglutaminase activity level at 3.3 10^-6M in presence of 10 uM retinal relative to retinal alone; type: cell-based; parameters: scale not given: the % may be the effect or the level left
Homo sapiens [3] = species: Homo sapiens; experiment: Inhibition of transglutaminase in human keratinocytes assessed as mean transglutaminase activity level at 1.1 10^-6M in presence of 10 uM retinal relative to retinal alone; type: cell-based; parameters: scale not given: the % may be the effect or the level left
Homo sapiens [4] = species: Homo sapiens; experiment: Inhibition of transglutaminase in human keratinocytes assessed as mean transglutaminase activity level at 4.1 10^-8M in presence of 10 uM retinal relative to retinal alone; type: cell-based; parameters: scale not given: the % may be the effect or the level left
Homo sapiens [5] = species: Homo sapiens; experiment: Inhibition of transglutaminase in human keratinocytes assessed as mean transglutaminase activity level at 3 10^-5M in presence of 10 uM retinal relative to retinal alone; type: cell-based; parameters: scale not given: the % may be the effect or the level left
Homo sapiens [6] = species: Homo sapiens; experiment: Inhibition of transglutaminase in human keratinocytes assessed as mean transglutaminase activity level at 8.2 10^-8M in presence of 10 uM retinal relative to retinal alone; type: cell-based; parameters: scale not given: the % may be the effect or the level left
Rattus norvegicus = species: Rattus norvegicus; experiment: Inhibition of retinal reductase in Sprague-Dawley rat liver microsomes at 100 uM using all-trans retinaldehyde and NADPH by HPLC analysis relative to control
Homo sapiens [7] = species: Homo sapiens; experiment: Inhibition of transglutaminase in human keratinocytes assessed as mean transglutaminase activity level at 3.29 10^-9M in presence of 10 uM retinal relative to retinal alone; type: cell-based; parameters: scale not given: the % may be the effect or the level left
Homo sapiens [8] = species: Homo sapiens
Homo sapiens [9] = species: Homo sapiens; experiment: Inhibition of transglutaminase in human keratinocytes assessed as mean transglutaminase activity level at 1 10^-5M in presence of 10 uM retinal relative to retinal alone; type: cell-based; parameters: scale not given: the % may be the effect or the level left
Homo sapiens [10] = species: Homo sapiens; experiment: Inhibition of transglutaminase in human keratinocytes assessed as mean transglutaminase activity level at 1.23 10^-7M in presence of 10 uM retinal relative to retinal alone; type: cell-based; parameters: scale not given: the % may be the effect or the level left
Homo sapiens [11] = species: Homo sapiens; experiment: Inhibition of transglutaminase in human keratinocytes assessed as mean transglutaminase activity level at 1.65 10^-9M in presence of 10 uM retinal relative to retinal alone; type: cell-based; parameters: scale not given: the % may be the effect or the level left
[12] = target: T1, Lecithin retinol acyltransferase (Bos taurus) (UniProt Q9BGL2); settings: at 100 µM
T1 sequence (whole entry): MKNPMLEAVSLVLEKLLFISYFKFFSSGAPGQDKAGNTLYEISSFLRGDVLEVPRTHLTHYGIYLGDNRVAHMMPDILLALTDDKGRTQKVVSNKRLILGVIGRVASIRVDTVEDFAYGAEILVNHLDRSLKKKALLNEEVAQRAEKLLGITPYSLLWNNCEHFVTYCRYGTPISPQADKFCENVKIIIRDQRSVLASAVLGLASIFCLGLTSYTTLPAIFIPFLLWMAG
Description: Inhibition of LRAT in bovine RPE microsomes at 100 uM using retinol substrate in presence of Palmitoyl-CoA incubated for 5 mins by HPLC analysis relative to control

[13] = target: T2, Diacylglycerol O-acyltransferase 1 (Bos taurus) (UniProt Q8MK44); settings: at 100 µM
T2 sequence (whole entry): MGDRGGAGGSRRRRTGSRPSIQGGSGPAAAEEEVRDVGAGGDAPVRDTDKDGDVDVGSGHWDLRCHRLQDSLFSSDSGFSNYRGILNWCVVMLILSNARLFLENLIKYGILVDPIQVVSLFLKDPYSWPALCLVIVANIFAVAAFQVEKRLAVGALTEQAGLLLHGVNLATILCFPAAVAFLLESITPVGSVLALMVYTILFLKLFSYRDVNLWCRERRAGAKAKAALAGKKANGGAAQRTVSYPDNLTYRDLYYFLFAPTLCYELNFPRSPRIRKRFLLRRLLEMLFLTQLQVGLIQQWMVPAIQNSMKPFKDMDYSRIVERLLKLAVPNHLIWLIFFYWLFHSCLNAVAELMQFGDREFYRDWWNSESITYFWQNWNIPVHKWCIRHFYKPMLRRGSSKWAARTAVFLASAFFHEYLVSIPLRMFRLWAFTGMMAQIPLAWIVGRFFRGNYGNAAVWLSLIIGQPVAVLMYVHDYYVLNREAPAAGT
Description: Inhibition of ARAT in bovine RPE microsomes at 100 uM using retinol substrate in presence of dilauroyl-phosphatidyl choline incubated for 5 mins by HPLC analysis relative to control

[14] = target: T1, Lecithin retinol acyltransferase (Bos taurus); experiment: Inhibition of LRAT in bovine RPE microsomes at 10 uM using retinol substrate in presence of Palmitoyl-CoA incubated for 5 mins by HPLC analysis relative to control
[15] = target: T3, Cellular retinoic acid-binding protein 2 (Homo sapiens) (UniProt P29373); experiment: Inhibition of radioactive all-trans retinoic acid binding to CRABP2 (unknown origin) expressed in Escherichia coli BLR(DE3)pLys incubated for 1 hr by scintillation counting assay; settings: concentration not given here
T3 sequence (whole entry): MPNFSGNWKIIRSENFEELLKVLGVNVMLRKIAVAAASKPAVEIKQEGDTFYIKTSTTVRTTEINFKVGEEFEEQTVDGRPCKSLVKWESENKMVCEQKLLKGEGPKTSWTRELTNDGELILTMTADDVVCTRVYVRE

Homo sapiens [16] = species: Homo sapiens; experiment: Inhibition of transglutaminase in human keratinocytes assessed as mean transglutaminase activity level at 4.1 10^-5M in presence of 10 uM retinal relative to retinal alone; type: cell-based; parameters: scale not given: the % may be the effect or the level left
Homo sapiens [17] = species: Homo sapiens; experiment: Inhibition of transglutaminase in human keratinocytes assessed as mean transglutaminase activity level at 1.23 10^-5M in presence of 10 uM retinal relative to retinal alone; type: cell-based; parameters: scale not given: the % may be the effect or the level left
Homo sapiens [18] = species: Homo sapiens; experiment: Inhibition of transglutaminase in human keratinocytes assessed as mean transglutaminase activity level at 8.2 10^-6M in presence of 10 uM retinal relative to retinal alone; type: cell-based; parameters: scale not given: the % may be the effect or the level left
Homo sapiens [19] = species: Homo sapiens; experiment: Inhibition of transglutaminase in human keratinocytes assessed as mean transglutaminase activity level at 1.1 10^-8M in presence of 10 uM retinal relative to retinal alone; type: cell-based; parameters: scale not given: the % may be the effect or the level left
Homo sapiens [20] = species: Homo sapiens; experiment: Inhibition of transglutaminase in human keratinocytes assessed as mean transglutaminase activity level at 1.65 10^-7M in presence of 10 uM retinal relative to retinal alone; type: cell-based; parameters: scale not given: the % may be the effect or the level left
Homo sapiens [21] = species: Homo sapiens; experiment: Inhibition of transglutaminase in human keratinocytes assessed as mean transglutaminase activity level at 1.1 10^-4M in presence of 10 uM retinal relative to retinal alone; type: cell-based; parameters: scale not given: the % may be the effect or the level left
Homo sapiens [22] = species: Homo sapiens; experiment: Inhibition of transglutaminase in human keratinocytes assessed as mean transglutaminase activity level at 5.0 10^-8M in presence of 10 uM retinal relative to retinal alone; type: cell-based; parameters: scale not given: the % may be the effect or the level left
Homo sapiens [23] = species: Homo sapiens; experiment: Inhibition of transglutaminase in human keratinocytes assessed as mean transglutaminase activity level at 3.73 10^-4M in presence of 10 uM retinal relative to retinal alone; type: cell-based; parameters: scale not given: the % may be the effect or the level left
[24] = target: T2, Diacylglycerol O-acyltransferase 1 (Bos taurus); experiment: Inhibition of ARAT in bovine RPE microsomes at 10 uM using retinol substrate in presence of dilauroyl-phosphatidyl choline incubated for 5 mins by HPLC analysis relative to control

SMILES	inhibition [12]	inhibition [13]	IC20 (Homo sapiens [8])	other results
COc1cc(NS(C)(=O)=O)ccc1Nc1c2ccccc2nc2ccccc12			3.3 ×10⁻⁶ M	Activity (Homo sapiens [1]): 109%; Activity (Homo sapiens [2]): 64%; Activity (Homo sapiens [3]): 84%; Activity (Homo sapiens [4]): 110%; Activity (Homo sapiens [5]): -10%; Activity (Homo sapiens [6]): 131%; inhibition (Rattus norvegicus): 22%; Activity (Homo sapiens [7]): 92%; Activity (Homo sapiens [9]): 1.8%; Activity (Homo sapiens [10]): 65%; Activity (Homo sapiens [11]): 113%
O=C1C[C@@H](c2ccc(O)cc2)Oc2cc(O)cc(O)c21	14%			
O=c1ccc2ccccc2[nH]1			1.7 ×10⁻⁴ M	
CCCCCCCC/C=C\CCCCCCCC1=NCCN1CCO			5.65 ×10⁻⁶ M	
O=C(O)CCCCCCCCCCCCCCC(=O)O			8.4 ×10⁻⁵ M	inhibition [15]: > 50%; Activity (Homo sapiens [16]): 105%; Activity (Homo sapiens [17]): 130%; Activity (Homo sapiens [18]): 114%; Activity (Homo sapiens [19]): 70%; Activity (Homo sapiens [20]): 95%; Activity (Homo sapiens [21]): 14.2%; Activity (Homo sapiens [22]): 74%; Activity (Homo sapiens [23]): 43.4%
Clc1ccc(COC(Cn2ccnc2)c2ccc(Cl)cc2Cl)c(Cl)c1 (configuration not stated)			8.42 ×10⁻⁸ M	
CC(C)(O)CCCC1=CCC(C=O)CC1 (configuration not stated)			4 ×10⁻⁵ M	
CCCCC/C=C\C/C=C\CCCCCCCC(=O)NCCO			1.48 ×10⁻⁵ M	inhibition [14]: 20%
CCC=CCCC=CC=O		20%		
CC(=O)/C=C/C1C(C)=CCCC1(C)C (configuration not stated)			1.42 ×10⁻⁴ M	
CC(C)=CCC/C(C)=C/CC/C(C)=C/CC/C(C)=C/CO	77%	81%		inhibition [24]: 38%; inhibition [14]: 16%
CC1=CC[C@H](CC[C@H](C)CO)C1(C)C	75%	70%		
CC1=CCCC(C)(C)C1/C=C/C(=O)CC(C)C (configuration not stated)	45%	8%		
CC(C)=CCC/C(C)=C/CO			4.72 ×10⁻³ M	
CC(=O)c1cc2c(cc1C)C(C)(C)C(C)CC2(C)C (configuration not stated)	33%			
C/C=C\C(=O)C1C(C)=CCCC1(C)C (configuration not stated)	98%	83%	1.69 ×10⁻⁴ M	inhibition [24]: 67%; inhibition [14]: 87%

Continued, in another order:

inhibition [12]	inhibition [13]	SMILES	IC20 (Homo sapiens [8])	other results
79%	70%	C/C=C/C(=O)C1=C(C)C=CCC1(C)C		inhibition [14]: 29%
43%	64%	CCCCC/C=C\C/C=C\CCCCCCCC(=O)NC(C)c1ccccc1 (configuration not stated)		
75%	69%	CCCCC/C=C\C/C=C\CCCCCCCC(=O)NCCCN(C)C		
0%		CCN(CC)CC(=O)Nc1c(C)cccc1C		
53%	53%	CC(C)=CCCC(C)=CCCC(C)=CCO	7.82 ×10⁻⁵ M	inhibition [24]: 23%; inhibition [14]: 10%
38%		CC(=O)/C(C)=C/C1C(C)=CCCC1(C)C (configuration not stated)		
11%	41%	CCCCCCCCCCCCCC(=O)N(C)CC(=O)O		
